Results: PubChem BioAssay AID2060615 (Molecular Pharmacology Branch, DTP, NCI, 2025)

Tested on: 496974-208-R-J2-PDC complex spheroids, growth % test/control
Assay: Anticancer human tumor 496974-208-R-J2-PDC patient-derived pancreatic carcinoma cell line growth inhibition [CLK]
Settings: for IC50: curve of first compound; for viability, T/C: stronger effect = lower value
In short: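 Multi-cell-type spheroids combined patient-derived tumor cells with HUVEC endothelial cells and human mesenchymal stem cells. Paired agents were dosed in half-log steps down from about clinical Cmax, or from 10 microM where Cmax was unknown.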

[1] = second compound 0.0316 µM, first compound 0.0316 µM
[2] = second compound 0.0316 µM, first compound 0.1 µM
[3] = second compound 0.0316 µM, first compound 0.316 µM
[4] = second compound 0.0316 µM, first compound 1 µM
[5] = second compound 0.1 µM, first compound 0.0316 µM
[6] = second compound 0.1 µM, first compound 0.1 µM
[7] = second compound 0.1 µM, first compound 0.316 µM
[8] = second compound 0.1 µM, first compound 1 µM
[9] = second compound 0.316 µM, first compound 0.0316 µM
[10] = second compound 0.316 µM, first compound 0.1 µM
[11] = second compound 0.316 µM, first compound 0.316 µM
[12] = second compound 0.316 µM, first compound 1 µM
[13] = second compound 1 µM, first compound 0.0316 µM
[14] = second compound 1 µM, first compound 0.1 µM
[15] = second compound 1 µM, first compound 0.316 µM
[16] = second compound 1 µM, first compound 1 µM
[17] = second compound 3.16 µM, first compound 0.0316 µM
[18] = second compound 3.16 µM, first compound 0.1 µM
[19] = second compound 3.16 µM, first compound 0.316 µM
[20] = second compound 3.16 µM, first compound 1 µM
[21] = second compound 10 µM, first compound 0.0316 µM
[22] = second compound 10 µM, first compound 0.1 µM
[23] = second compound 10 µM, first compound 0.316 µM
[24] = second compound 10 µM, first compound 1 µM
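Also: spheroids exposed to the drugs for 7 days before readout.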
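For viability, T/C in this document: 100% = DMSO vehicle control wells.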

For `CC(=O)O[C@H]1C(=O)[C@@]2(C)[C@H]([C@H](OC(=O)c3ccccc3)[C@]3(O)C[C@H](OC(=O)[C@H](O)[C@@H](NC(=O)c4ccccc4)c4ccccc4)C(C)=C1C3(C)C)[C@]1(OC(C)=O)CO[C@@H]1C[C@@H]2O` + CN1CCN(c2cc(C(=O)Nc3cc4cc(-c5cnn(C)c5)ccc4cn3)ccn2)CC1, the IC50 (second compound 0.0316 µM) was less than 31.6 nM, the IC50 (second compound 0.1 µM) was less than 31.6 nM and the IC50 (second compound 0.316 µM) was less than 31.6 nM. The IC50 (second compound 1 µM) was less than 31.6 nM, the IC50 (second compound 3.16 µM) was less than 31.6 nM and the IC50 (second compound 10 µM) was less than 31.6 nM. For the same molecule, the viability, T/C [1] was 35.9%, the viability, T/C [2] was 29.4% and the viability, T/C [3] was 33.5%. The viability, T/C [4] was 29.2%, the viability, T/C (second compound 0.0316 µM, first compound 3.16 µM) was 31.5% and the viability, T/C (second compound 0.0316 µM, first compound 10 µM) was 27.9%. For the same molecule, the viability, T/C [5] was 29.4%, the viability, T/C [6] was 25.9% and the viability, T/C [7] was 27.7%. It also gave a viability, T/C [8] of 29.5%, a viability, T/C (second compound 0.1 µM, first compound 3.16 µM) of 24.8% and a viability, T/C (second compound 0.1 µM, first compound 10 µM) of 23.7%. It also gave a viability, T/C [9] of 5.33%, a viability, T/C [10] of 4.57% and a viability, T/C [11] of 5.74%. It also gave a viability, T/C [12] of 4.55%, a viability, T/C (second compound 0.316 µM, first compound 3.16 µM) of 5.22% and a viability, T/C (second compound 0.316 µM, first compound 10 µM) of 4.68%. For the same molecule, the viability, T/C [13] was 0.41%, the viability, T/C [14] was 0.53% and the viability, T/C [15] was 0.5%. It also gave a viability, T/C [16] of 0.41%, a viability, T/C (second compound 1 µM, first compound 3.16 µM) of 0.36% and a viability, T/C (second compound 1 µM, first compound 10 µM) of 0.37%. The viability, T/C [17] was 0.58%, the viability, T/C [18] was 0.77% and the viability, T/C [19] was 2.07%. The viability, T/C [20] was 0.54%, the viability, T/C (second compound 3.16 µM, first compound 3.16 µM) was 0.58% and the viability, T/C (second compound 3.16 µM, first compound 10 µM) was 0.34%. The viability, T/C [21] was 0.23%, the viability, T/C [22] was 0.29% and the viability, T/C [23] was 0.24%. The viability, T/C [24] was 0.25%, the viability, T/C (second compound 10 µM, first compound 3.16 µM) was 2.61% and the viability, T/C (second compound 10 µM, first compound 10 µM) was 0.28%.
Molecule `CCc1c2c(nc3ccc(O)cc13)-c1cc3c(c(=O)n1C2)COC(=O)[C@]3(O)CC` + CN1CCN(c2cc(C(=O)Nc3cc4cc(-c5cnn(C)c5)ccc4cn3)ccn2)CC1 has an IC50 (second compound 0.0316 µM) of 7.79 nM, an IC50 (second compound 0.1 µM) of less than 3.16 nM and an IC50 (second compound 0.316 µM) of less than 3.16 nM. It also gave an IC50 (second compound 1 µM) of less than 3.16 nM, an IC50 (second compound 3.16 µM) of less than 3.16 nM and an IC50 (second compound 10 µM) of less than 3.16 nM. It also gave a viability, T/C (second compound 0.0316 µM, first compound 0.00316 µM) of 62.2%, a viability, T/C (second compound 0.0316 µM, first compound 0.01 µM) of 47.5% and a viability, T/C [1] of 26.7%. For the same molecule, the viability, T/C [2] was 14.5%, the viability, T/C [3] was 6.46% and the viability, T/C [4] was 1.65%. The viability, T/C (second compound 0.1 µM, first compound 0.00316 µM) was 49.3%, the viability, T/C (second compound 0.1 µM, first compound 0.01 µM) was 38.7% and the viability, T/C [5] was 23.3%. The viability, T/C [6] was 10.7%, the viability, T/C [7] was 3.35% and the viability, T/C [8] was 0.91%. The viability, T/C (second compound 0.316 µM, first compound 0.00316 µM) was 6.81%, the viability, T/C (second compound 0.316 µM, first compound 0.01 µM) was 5.74% and the viability, T/C [9] was 3.64%. The viability, T/C [10] was 2%, the viability, T/C [11] was 0.48% and the viability, T/C [12] was 1.92%. It also gave a viability, T/C (second compound 1 µM, first compound 0.00316 µM) of 0.35%, a viability, T/C (second compound 1 µM, first compound 0.01 µM) of 0.69% and a viability, T/C [13] of 3.07%. It also gave a viability, T/C [14] of 0.44%, a viability, T/C [15] of 0.26% and a viability, T/C [16] of 1.23%. For the same molecule, the viability, T/C (second compound 3.16 µM, first compound 0.00316 µM) was 0.46%, the viability, T/C (second compound 3.16 µM, first compound 0.01 µM) was 0.62% and the viability, T/C [17] was 1.9%. For the same molecule, the viability, T/C [18] was 0.34%, the viability, T/C [19] was 0.73% and the viability, T/C [20] was 0.29%. The viability, T/C (second compound 10 µM, first compound 0.00316 µM) was 0.14%, the viability, T/C (second compound 10 µM, first compound 0.01 µM) was 0.25% and the viability, T/C [21] was 1.21%. For the same molecule, the viability, T/C [22] was 0.21%, the viability, T/C [23] was 0.65% and the viability, T/C [24] was 3.41%.
